# Laboratory results reported in patent publication US20090030039A1, “Piperidine Derivatives as Cxcr3 Receptor Antagonists” (priority 2006, published 2009).
# Biological target: T1, human CXCR3 (Homo sapiens, UniProt P49682)
# T1 construct: expressed in transfected cells; host or cells: CHO cells (membrane preparation)
# T1 sequence (P49682 1-368): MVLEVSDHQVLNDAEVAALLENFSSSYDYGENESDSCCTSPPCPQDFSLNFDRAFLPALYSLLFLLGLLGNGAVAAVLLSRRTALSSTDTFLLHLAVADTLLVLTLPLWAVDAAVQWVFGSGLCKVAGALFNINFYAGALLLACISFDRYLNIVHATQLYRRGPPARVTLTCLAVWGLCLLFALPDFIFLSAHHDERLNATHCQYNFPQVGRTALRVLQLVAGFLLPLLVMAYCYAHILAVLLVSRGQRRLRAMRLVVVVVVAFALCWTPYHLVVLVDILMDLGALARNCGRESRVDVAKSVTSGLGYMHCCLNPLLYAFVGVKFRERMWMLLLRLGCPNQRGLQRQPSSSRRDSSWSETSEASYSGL
# Assay: [35S]GTPγS exchange assay, CXCR3 receptor inhibition (hI-TAC-induced GTPγS-binding)
# Format: biochemical
# Details: -log IC50 (molar) inhibiting 50% of specific I-TAC-induced GTPγS-binding; membranes of human CXCR3-transfected CHO cells
# Procedure: CXCR3 Receptor Inhibition was Examined in a [^35S]GTPγS Exchange Assay
# The exchange of guanosine 5′-[^35S]triphosphate was measured on membranes of human CXCR3-transfected CHO cells. [^35S]GTPγS exchange assays were performed in 96-well plates with 10 μg of membrane protein/well using basic flashplates (Perkin Elmer). Compounds were dissolved in DMSO and diluted with incubation buffer to yield required concentrations with 9% DMSO. Incubation buffer is composed of 20 mM HEPES, 100 mM NaCl, 3 μM GDP and 1 mM MgCl2, pH 7.4. […] Compound, membranes, hI-TAC (interferon-inducible T-cell alpha chemoattractant) and [^35S]GTPγS were added in a total volume of 200 μl. First, 20 μl of the appropriate compound dilution and 140 μl membranes from CXCR3-CHO cells were dissolved in membrane incubation buffer and pre-incubated for 30 minutes at 30° C. Then, 20 μl of hI-TAC dissolved at 30 nM in incubation buffer was added to the membranes and the mixture containing 1% of DMSO was incubated for another 30 minutes at 30° C. […] After 1 minute shaking and 30 minutes incubation at 30° C., flashplates were centrifuged for 5 minutes at 2500 rpm at room temperature. Flashplate bound radioactivity was determined by liquid scintillation counting. Basal GTPγS-binding was measured in 8 wells with membranes incubated in the same volume with 1% DMSO, without I-TAC. Maximal GTPγS-binding was measured in 8 wells with membranes incubated with 1% DMSO and 3 nM I-TAC. […] IC50 values were calculated using non-linear regression in Graphpad Prism.
row,Compound,pIC50
1,O=C1CCC(c2ccccc2)(C2CCN(Cc3ccc(Cl)c(Cl)c3)CC2)C(=O)N1 (stereo not shown) [Compound 80],5.9
2,O=C1CCC(c2cccc(C(=O)NCCCO)c2)(C2CCN(Cc3ccc(Br)cc3)CC2)C(=O)N1 (stereo not shown) [Compound 91],5.9
3,CCN1C(=O)CCC(c2ccccc2)(C2CCN(Cc3ccc(Br)cc3)CC2)C1=O (stereo not shown) [Compound 126],5.6
4,CC(C)N1C(=O)CCC(c2ccccc2)(C2CCN(Cc3ccc(Br)cc3)CC2)C1=O (stereo not shown) [Compound 127],5.3
5,COCCN1C(=O)CCC(c2ccccc2)(C2CCN(Cc3ccc(Br)cc3)CC2)C1=O (stereo not shown) [Compound 129],5.7

# Same assay, conditions: -log IC50 (molar) inhibiting 50% of specific I-TAC-induced GTPγS-binding; membranes of human CXCR3-transfected CHO cells; read-out: pIC50 (converted)
row,Compound,IC50 [µM]
1,COc1ccc(C2(C3CCN(Cc4ccc(Cl)cc4)CC3)CCC(=O)NC2=O)cc1 (stereo not shown) [Compound 69],3.16
2,O=C1CCC(c2ccccc2)(C2CCN(Cc3ccc(Cl)cc3Cl)CC2)C(=O)N1 (stereo not shown) [Compound 70],2.51
3,O=C1CCC(c2cccc(Cl)c2)(C2CCN(Cc3ccc(Cl)cc3Cl)CC2)C(=O)N1 (stereo not shown) [Compound 71],2.51
4,Cc1cccc(C2(C3CCN(Cc4ccc(Cl)cc4Cl)CC3)CCC(=O)NC2=O)c1 (stereo not shown) [Compound 72],6.31
5,O=C1CCC(c2cccc(C(=O)O)c2)(C2CCN(Cc3ccc(Cl)cc3Cl)CC2)C(=O)N1 (stereo not shown) [Compound 73],0.501
6,COc1cccc(C2(C3CCN(Cc4ccc(Cl)cc4Cl)CC3)CCC(=O)NC2=O)c1 (stereo not shown) [Compound 74],3.98
7,O=C1CCC(c2ccc(F)cc2)(C2CCN(Cc3ccc(Cl)cc3Cl)CC2)C(=O)N1 (stereo not shown) [Compound 75],2.51
8,O=C1CCC(c2cccc(Cl)c2)(C2CCN(Cc3ccc(Cl)c(F)c3)CC2)C(=O)N1 (stereo not shown) [Compound 77],0.794
9,Cc1cccc(C2(C3CCN(Cc4ccc(Cl)c(F)c4)CC3)CCC(=O)NC2=O)c1 (stereo not shown) [Compound 78],0.794
10,COc1cccc(C2(C3CCN(Cc4ccc(Cl)c(F)c4)CC3)CCC(=O)NC2=O)c1 (stereo not shown) [Compound 79],0.251
11,O=C1CCC(c2cccc(Cl)c2)(C2CCN(Cc3ccc(Cl)c(Cl)c3)CC2)C(=O)N1 (stereo not shown) [Compound 81],3.98
12,Cc1cccc(C2(C3CCN(Cc4ccc(Cl)c(Cl)c4)CC3)CCC(=O)NC2=O)c1 (stereo not shown) [Compound 82],3.16
13,O=C1CCC(c2cccc(C(=O)O)c2)(C2CCN(Cc3ccc(Cl)c(Cl)c3)CC2)C(=O)N1 (stereo not shown) [Compound 83],0.398
14,COc1cccc(C2(C3CCN(Cc4ccc(Cl)c(Cl)c4)CC3)CCC(=O)NC2=O)c1 (stereo not shown) [Compound 84],2
15,O=C1CCC(c2ccc(F)cc2)(C2CCN(Cc3ccc(Cl)c(Cl)c3)CC2)C(=O)N1 (stereo not shown) [Compound 85],0.794
16,O=C1CCC(c2cccc(Cl)c2)(C2CCN(Cc3ccc(Br)cc3)CC2)C(=O)N1 (stereo not shown) [Compound 89],1.58
17,O=C1CCC(c2cccc(C(F)(F)F)c2)(C2CCN(Cc3ccc(Br)cc3)CC2)C(=O)N1 (stereo not shown) [Compound 90],1.58
18,O=C1CCC(c2ccc(F)cc2)(C2CCN(Cc3ccc(Br)cc3)CC2)C(=O)N1 (stereo not shown) [Compound 92],1
19,COc1ccc(C2(C3CCN(Cc4ccc(Br)cc4)CC3)CCC(=O)NC2=O)cc1 (stereo not shown) [Compound 93],3.98
20,O=C1CCC(c2ccccc2)(C2CCN(Cc3ccc(Br)cc3F)CC2)C(=O)N1 (stereo not shown) [Compound 94],0.501
21,O=C1CCC(c2cccc(Cl)c2)(C2CCN(Cc3ccc(Br)cc3F)CC2)C(=O)N1 (stereo not shown) [Compound 95],1.58
22,O=C1CCC(c2cccc(C(F)(F)F)c2)(C2CCN(Cc3ccc(Br)cc3F)CC2)C(=O)N1 (stereo not shown) [Compound 96],3.16
23,O=C1CCC(c2cccc(C(=O)O)c2)(C2CCN(Cc3ccc(Br)cc3F)CC2)C(=O)N1 (stereo not shown) [Compound 97],0.501
24,O=C1CCC(c2ccc(F)cc2)(C2CCN(Cc3ccc(Br)cc3F)CC2)C(=O)N1 (stereo not shown) [Compound 98],0.631
25,O=C1CCC(c2cccc(C(=O)O)c2)(C2CCN(Cc3ccc(Br)c(F)c3)CC2)C(=O)N1 (stereo not shown) [Compound 99],0.398
26,Cc1ccc(CN2CCC(C3(c4cccc(C)c4)CCC(=O)NC3=O)CC2)cc1 (stereo not shown) [Compound 101],2.51
27,O=C1CCC(c2ccccc2)(C2CCN(Cc3ccc(C(F)(F)F)cc3)CC2)C(=O)N1 (stereo not shown) [Compound 102],3.98
28,O=C1CCC(c2cccc(Cl)c2)(C2CCN(Cc3ccc(C(F)(F)F)cc3)CC2)C(=O)N1 (stereo not shown) [Compound 103],3.98

row,Compound,IC50 [µM]
1,Cc1cccc(C2(C3CCN(Cc4ccc(C(F)(F)F)cc4)CC3)CCC(=O)NC2=O)c1 (stereo not shown) [Compound 104],3.98
2,O=C1CCC(c2ccc(F)cc2)(C2CCN(Cc3ccc(C(F)(F)F)cc3)CC2)C(=O)N1 (stereo not shown) [Compound 106],3.98
3,COc1ccc(CN2CCC(C3(c4ccccc4)CCC(=O)NC3=O)CC2)cc1 (stereo not shown) [Compound 107],3.98
4,COc1ccc(CN2CCC(C3(c4ccccc4)CCC(=O)NC3=O)CC2)c(OC)c1 (stereo not shown) [Compound 108],7.94
5,O=C1CCC(c2ccccc2)(C2CCN(Cc3ccc(OC(F)F)cc3)CC2)C(=O)N1 (stereo not shown) [Compound 109],1
6,O=C1CCC(c2cccc(C(F)(F)F)c2)(C2CCN(Cc3ccc(OC(F)F)cc3)CC2)C(=O)N1 (stereo not shown) [Compound 110],7.94
7,O=C1CCC(c2ccc(F)cc2)(C2CCN(Cc3ccc(OC(F)F)cc3)CC2)C(=O)N1 (stereo not shown) [Compound 111],1
8,O=C1CCC(c2ccccc2)(C2CCN(Cc3ccc(OC(F)(F)F)cc3)CC2)C(=O)N1 (stereo not shown) [Compound 112],1
9,O=C1CCC(c2ccc(F)cc2)(C2CCN(Cc3ccc(OC(F)(F)F)cc3)CC2)C(=O)N1 (stereo not shown) [Compound 113],5.01
10,O=C1CCC(c2cccc(Cl)c2)(C2CCN(Cc3ccc(OC(F)(F)F)cc3)CC2)C(=O)N1 (stereo not shown) [Compound 114],7.94
11,CSc1ccc(CN2CCC(C3(c4ccccc4)CCC(=O)NC3=O)CC2)cc1 (stereo not shown) [Compound 116],5.01
12,CSc1ccc(CN2CCC(C3(c4cccc(Cl)c4)CCC(=O)NC3=O)CC2)cc1 (stereo not shown) [Compound 117],6.31
13,O=C1CCC(c2ccccc2)(C2CCN(Cc3ccc(OCc4ccccc4)cc3)CC2)C(=O)N1 (stereo not shown) [Compound 119],6.31
14,CN1C(=O)CCC(c2ccccc2)(C2CCN(Cc3ccc(Cl)cc3)CC2)C1=O (stereo not shown) [Compound 120],1.58
15,COC(=O)CCN1C(=O)CCC(c2ccccc2)(C2CCN(Cc3ccc(Cl)cc3)CC2)C1=O (stereo not shown) [Compound 121],6.31
16,CN1C(=O)CCC(c2ccccc2)(C2CCN(Cc3ccc(Cl)c(Cl)c3)CC2)C1=O (stereo not shown) [Compound 122],5.01
17,COC(=O)CCN1C(=O)CCC(c2ccccc2)(C2CCN(Cc3ccc(Cl)cc3Cl)CC2)C1=O (stereo not shown) [Compound 124],1
18,CCCN1C(=O)CCC(c2ccccc2)(C2CCN(Cc3ccc(Br)cc3)CC2)C1=O (stereo not shown) [Compound 128],3.98
19,COC(=O)CCN1C(=O)CCC(c2ccccc2)(C2CCN(Cc3ccc(Br)cc3)CC2)C1=O (stereo not shown) [Compound 130],3.98
20,CN1C(=O)CCC(c2ccccc2)(C2CCN(Cc3ccc(C(F)(F)F)cc3)CC2)C1=O (stereo not shown) [Compound 131],3.98
21,COC(=O)CCN1C(=O)CCC(c2ccccc2)(C2CCN(Cc3ccc(C(F)(F)F)cc3)CC2)C1=O (stereo not shown) [Compound 132],0.631
22,O=C1CCC(c2ccccc2)(C2CCN(Cc3ccc(F)cc3)CC2)CN1 (stereo not shown) [Compound 133],1.58
23,O=C1CCC(c2ccc(F)cc2)(C2CCN(Cc3ccc(F)c(Cl)c3)CC2)CN1 (stereo not shown) [Compound 134],3.98
24,O=C1CCC(c2ccccc2)(C2CCN(Cc3ccc(Cl)cc3)CC2)CN1 (stereo not shown) [Compound 135],1
25,O=C1CCC(c2ccc(F)cc2)(C2CCN(Cc3ccc(Cl)cc3)CC2)CN1 (stereo not shown) [Compound 136],0.794
26,O=C1CCC(c2ccccc2)(C2CCN(Cc3ccc(Cl)cc3Cl)CC2)CN1 (stereo not shown) [Compound 137],0.631
27,O=C1CCC(c2ccc(F)cc2)(C2CCN(Cc3ccc(Cl)cc3Cl)CC2)CN1 (stereo not shown) [Compound 138],1.58

# Same assay, conditions: pIC50, -log IC50 (molar) inhibiting 50% of specific I-TAC-induced GTPγS-binding; membranes of human CXCR3-transfected CHO cells
row,Compound,IC50 [µM]
1,O=C1CCC(c2ccccc2)(C2CCN(Cc3ccc(Cl)c(C(F)(F)F)c3)CC2)C(=O)N1 (stereo not shown) [Compound 86],2
2,O=C1CCC(c2ccccc2)(C2CCN(Cc3ccc(Br)cc3)CC2)C(=O)N1 (stereo not shown) [Compound 87],0.794
3,O=C1CCC(c2ccccc2)(C2CCN(Cc3ccc(Br)cc3)CC2)C(=O)N1 (stereo not shown) [Compound 88],1.26

# Same assay, conditions: read-out: pIC50 (converted)
row,Compound,IC50 [µM]
1,O=C1CCC(c2ccccc2)(C2CCN(Cc3ccc(Cl)c(F)c3)CC2)C(=O)N1 (stereo not shown) [Compound 76],0.316
